Laboratory results taken from BindingDB's records for patent US12570607 (CSPC Zhongqi Pharmaceutical Technology (Shijiazhuang) Co., 2026).

Tests used:
Assay in all cases: Inhibitory Effect Assay
[1] = target: Cyclin-dependent kinase 9 (Homo sapiens, UniProt P50750)
Protocol: (§1) A compound dissolved in DMSO (50 nL) was transferred to the kinase reaction plate by using acoustic technology (Echo). 5 μL of a CDK kinase dilution solution was added to the kinase reaction plate and incubated at room temperature for 10 minutes after centrifugation. 5 μL of a substrate premix solution was added to the plate, and the final concentrations of the substrate and the ATP in each well were shown in Table 1. After centrifugation, the reaction was performed at 30° C. for 120 minutes.

[2] = target: Cyclin-dependent kinase 5 (Homo sapiens, UniProt Q00535)
Protocol: as §1

[3] = target: Cyclin-dependent kinase 4 (Homo sapiens, UniProt P11802)
Protocol: as §1

[4] = target: Cyclin-dependent kinase 1 (Homo sapiens, UniProt P06493)
Protocol: as §1

[5] = target: Cyclin-dependent kinase 2 (Homo sapiens, UniProt P24941)
Protocol: as §1

[6] = target: Cyclin-dependent kinase 6 (Homo sapiens, UniProt Q00534)
Protocol: as §1

[7] = target: Cyclin-dependent kinase 7 (Homo sapiens, UniProt P50613)
Protocol: as §1

Sequence of Cyclin-dependent kinase 9 (P50750 whole entry): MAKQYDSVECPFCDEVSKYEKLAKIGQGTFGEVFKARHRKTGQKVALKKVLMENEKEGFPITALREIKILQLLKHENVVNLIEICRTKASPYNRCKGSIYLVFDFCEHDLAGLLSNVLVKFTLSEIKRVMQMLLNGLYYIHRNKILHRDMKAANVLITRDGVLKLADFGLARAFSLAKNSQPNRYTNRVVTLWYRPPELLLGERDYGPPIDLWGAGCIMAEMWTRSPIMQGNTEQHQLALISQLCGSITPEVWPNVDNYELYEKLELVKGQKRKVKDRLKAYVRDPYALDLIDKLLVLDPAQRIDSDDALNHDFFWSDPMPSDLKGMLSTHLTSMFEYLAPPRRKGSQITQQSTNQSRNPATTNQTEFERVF
Sequence of Cyclin-dependent kinase 5 (Q00535 whole entry): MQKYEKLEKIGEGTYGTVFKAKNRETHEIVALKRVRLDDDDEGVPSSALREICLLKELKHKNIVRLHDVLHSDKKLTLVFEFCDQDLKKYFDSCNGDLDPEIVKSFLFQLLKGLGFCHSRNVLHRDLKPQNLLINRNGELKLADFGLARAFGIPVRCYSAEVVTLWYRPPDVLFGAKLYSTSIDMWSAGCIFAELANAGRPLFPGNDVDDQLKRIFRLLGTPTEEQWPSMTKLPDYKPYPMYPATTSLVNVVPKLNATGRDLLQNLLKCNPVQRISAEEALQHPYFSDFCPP
Sequence of Cyclin-dependent kinase 7 (P50613 whole entry): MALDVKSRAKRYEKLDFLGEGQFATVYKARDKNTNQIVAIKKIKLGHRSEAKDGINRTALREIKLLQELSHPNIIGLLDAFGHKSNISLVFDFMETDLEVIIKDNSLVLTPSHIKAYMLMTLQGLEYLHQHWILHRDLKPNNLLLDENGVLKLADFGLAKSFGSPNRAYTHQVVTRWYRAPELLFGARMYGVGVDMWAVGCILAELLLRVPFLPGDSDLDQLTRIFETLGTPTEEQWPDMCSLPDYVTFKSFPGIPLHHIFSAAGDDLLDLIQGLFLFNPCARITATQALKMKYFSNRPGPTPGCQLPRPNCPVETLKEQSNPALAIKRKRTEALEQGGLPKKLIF
Sequence of Cyclin-dependent kinase 1 (P06493 whole entry): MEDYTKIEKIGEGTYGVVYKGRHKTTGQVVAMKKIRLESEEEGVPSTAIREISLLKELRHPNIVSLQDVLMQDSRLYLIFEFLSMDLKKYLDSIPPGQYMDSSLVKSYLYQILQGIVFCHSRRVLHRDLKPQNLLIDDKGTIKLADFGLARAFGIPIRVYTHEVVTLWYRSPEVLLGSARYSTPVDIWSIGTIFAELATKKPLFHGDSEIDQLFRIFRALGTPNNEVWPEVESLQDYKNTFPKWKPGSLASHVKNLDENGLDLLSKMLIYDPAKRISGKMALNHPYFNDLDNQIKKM
Sequence of Cyclin-dependent kinase 4 (P11802 whole entry): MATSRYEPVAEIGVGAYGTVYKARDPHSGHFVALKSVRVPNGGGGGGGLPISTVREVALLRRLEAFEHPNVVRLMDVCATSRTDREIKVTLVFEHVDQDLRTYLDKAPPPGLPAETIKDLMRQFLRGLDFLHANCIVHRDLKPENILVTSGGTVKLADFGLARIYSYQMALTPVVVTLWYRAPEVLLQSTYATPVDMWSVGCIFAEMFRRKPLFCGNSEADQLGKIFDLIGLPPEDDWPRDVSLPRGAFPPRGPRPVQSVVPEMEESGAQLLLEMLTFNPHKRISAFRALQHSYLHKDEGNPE
Sequence of Cyclin-dependent kinase 6 (Q00534 whole entry): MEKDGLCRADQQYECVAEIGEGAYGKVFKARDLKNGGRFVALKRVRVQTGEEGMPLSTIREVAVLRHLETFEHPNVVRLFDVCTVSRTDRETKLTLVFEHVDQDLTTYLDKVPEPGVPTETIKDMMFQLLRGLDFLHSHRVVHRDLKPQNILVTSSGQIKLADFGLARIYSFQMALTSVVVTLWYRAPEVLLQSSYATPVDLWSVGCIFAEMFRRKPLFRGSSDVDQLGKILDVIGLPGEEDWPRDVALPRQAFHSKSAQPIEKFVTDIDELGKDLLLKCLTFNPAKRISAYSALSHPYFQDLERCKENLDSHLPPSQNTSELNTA

Row | SMILES | IC50 [1] | IC50 [2] | IC50 [3] | IC50 [4] | IC50 [5] | IC50 [6] | IC50 [7]
1 | COC(=O)N[C@@H]1CCC[C@H](C(=O)Nc2cc(-c3ccc(F)cc3OC)c(F)cn2)C1 [US12570607, Example 36] | 6.88 nM | 209 nM | 630 nM | 97 nM | 558 nM | 3370 nM | 3720 nM
2 | COc1cc(F)ccc1-c1cc(NC(=O)[C@H]2CCC[C@@H](NS(C)(=O)=O)C2)ncc1F [US12570607, Example 25] | 7.54 nM | 716 nM | 811 nM | 265 nM | 2050 nM | 2360 nM | 4360 nM
3 | CNC(=O)N[C@@H]1CCC[C@H](C(=O)Nc2cc(-c3ccc(F)cc3OC)c(F)cn2)C1 [US12570607, Example 37] | 6.44 nM | 248 nM | 361 nM | 82 nM | 688 nM | 2640 nM | 
4 | COc1cc(F)ccc1-c1cc(NC(=O)[C@H]2CCC[C@@H](NC(=O)C(F)(F)F)C2)ncc1F [US12570607, Example 42] | 6.66 nM | 140 nM | 184 nM | 72.6 nM | 253 nM | 1010 nM | 
5 | CC(=O)N[C@@H]1CCC[C@H](C(=O)Nc2cc(-c3cccc4ccoc34)c(F)cn2)C1 [US12570607, Example 19] | 7.65 nM |  | 196 nM | 87.1 nM | 638 nM | 297 nM | 1170 nM
6 | COc1cc(F)ccc1-c1cc(NC(=O)[C@H]2CCC[C@@H](NC(=O)CC#N)C2)ncc1F [US12570607, Example 32] | 6.86 nM | 329 nM | 353 nM | 86.7 nM | 1070 nM | 2450 nM | 1650 nM
7 | COc1cc(F)ccc1-c1cc(NC(=O)[C@H]2CCC[C@@H](NC(=O)CO)C2)ncc1F [US12570607, Example 45] | 6.92 nM | 284 nM | 785 nM | 93.2 nM | 564 nM | 2790 nM | 4440 nM
8 | CC(=O)N[C@@H]1CCC[C@H](C(=O)Nc2cc(-c3ccc(F)cc3OC(C)C)c(F)cn2)C1 [US12570607, Example 8] | 7.21 nM | 614 nM | 273 nM | 214 nM | 991 nM | 1770 nM | > 9900 nM
9 | COc1ccccc1-c1cc(NC(=O)[C@H]2CCC[C@@H](NC(C)=O)C2)ncc1F [US12570607, Example 17] | 7.12 nM | 357 nM | 474 nM | 193 nM | 1440 nM | 3170 nM | 5480 nM
10 | COc1cc(F)ccc1-c1cc(NC(=O)[C@H]2CCC[C@@H](NC(=O)[C@H](C)O)C2)ncc1F [US12570607, Example 48] | 6.84 nM | 301 nM | 767 nM | 133 nM |  | 3630 nM | 2150 nM
11 | COc1cc(F)ccc1-c1cc(NC(=O)[C@H]2CCC[C@@H](NC(C)=O)C2)ncc1F [US12570607, Example 5] | 7.9 nM |  | 429 nM |  | 475 nM | 1120 nM | 2750 nM
12 | COc1cc(F)ccc1-c1cc(NC(=O)[C@H]2CCC[C@@H](NC(=O)c3ccccn3)C2)ncc1F [US12570607, Example 43] | 7.17 nM | 296 nM | 582 nM | 80 nM | 823 nM | 3080 nM | 2410 nM
13 | COc1cc(F)ccc1-c1cc(NC(=O)C2CCCC(NC(C)=O)C2)ncc1F (stereo unspecified) [US12570607, Example 3] | 16.8 nM | 721 nM |  | 262 nM | 2120 nM | 1390 nM | 6210 nM
14 | COc1cc(F)ccc1-c1cc(NC(=O)[C@H]2CCC[C@@H](NC(=O)Nc3cc(C)no3)C2)ncc1F [US12570607, Example 41] | 7.65 nM | 361 nM | 629 nM | 196 nM | 1250 nM | 4980 nM | 1080 nM
15 | COc1cc(F)ccc1-c1cc(NC(=O)[C@H]2CCC[C@@H](NC(=O)C3(C#N)CC3)C2)ncc1F [US12570607, Example 33] | 6.68 nM | 168 nM | 395 nM | 78.8 nM | 761 nM | 1760 nM | 1260 nM
16 | COc1cc(F)c(F)cc1-c1cc(NC(=O)[C@H]2CCC[C@@H](NC(=O)CO)C2)ncc1F [US12570607, Example 68] | 5.55 nM | 162 nM | 402 nM | 73.6 nM | 274 nM | 2030 nM | 2630 nM
17 | COc1cc(F)c(F)cc1-c1cc(NC(=O)[C@H]2CCC[C@@H](NC(=O)C3(C#N)CC3)C2)ncc1F [US12570607, Example 67] | 5.45 nM | 82.9 nM | 268 nM |  | 392 nM | 600 nM | 1420 nM
